Results: patent US20230053540A1, “TREATMENT OF LIVER INJURY” (Massachusetts Institute of Technology, priority 2019, published 2023)

System: hepatocytes
Experiment: Seq-Well scRNA-Seq of hepatocytes after APAP overdose (signature scores, DEG vs untreated)
Format: in vivo, mouse
Settings: A6 vs UT

**Q.** What does the source list for `CC(=O)Nc1ccc(O)cc1` [APAP, acetaminophen]?
**A.** Plbd2 pct.1: 0.344; Plcxd2 A6logFC: −0.2752; Plcxd2 avg_logFC: −0.2752; Plcxd2 pct.1: 0.162; Plec avg_logFC: 0.4675; Plec pct.1: 0.422; Plek avg_logFC: 0.3089; Plek pct.1: 0.11; Plin2 avg_logFC: 1.461; Plin5 avg_logFC: 0.2963; Plin5 pct.1: 0.456; Plscr1 avg_logFC: 0.4445; Pmpcb avg_logFC: −0.2636; Pmpcb pct.1: 0.356; Pnkd A6logFC: −0.2928; Pon1 avg_logFC: −0.6858; Ppan avg_logFC: 0.2724; Ppan pct.1: 0.255; Ppara avg_logFC: −0.2871; Ppara pct.1: 0.234; Ppib avg_logFC: −0.5897; Ppip5k2 A6logFC: 0.3209; Ppip5k2 avg_logFC: 0.3209; Ppip5k2 pct.1: 0.344; Ppl avg_logFC: 0.8798; Ppm1g A6logFC: 0.2522; Ppm1g avg_logFC: 0.2522; Ppm1g pct.1: 0.358; Ppm1k avg_logFC: −0.5584; Ppp1r3b avg_logFC: −0.4027; Ppp1r3b pct.1: 0.098; Ppp2r5a avg_logFC: −0.2605; Ppp2r5a pct.1: 0.43; Prdx1 avg_logFC: −0.5292; Prdx4 avg_logFC: −0.4176; Prdx4 pct.1: 0.372; Proc A6logFC: −0.2707; Prpf19 A6logFC: 0.2588; Prpf19 avg_logFC: 0.2588; Prpf19 pct.1: 0.432; Prrc2c avg_logFC: 0.4393; Prrc2c pct.1: 0.415; Psap A6logFC: 0.2578; Psap avg_logFC: 0.2578; Psap pct.1: 0.556; Psat1 avg_logFC: 0.3012; Psen2 avg_logFC: −0.9474; Psma1 A6logFC: −0.2567; Psma1 avg_logFC: −0.2567; Psma1 pct.1: 0.353; Psma6 A6logFC: −0.3035; Psma6 avg_logFC: −0.3035; Psma6 pct.1: 0.501; Psme1 avg_logFC: −0.394; Psme1 pct.1: 0.26; Ptpmt1 A6logFC: −0.256; Ptpmt1 avg_logFC: −0.256; Ptpmt1 pct.1: 0.372; Ptpn1 avg_logFC: 0.4163; Ptpn1 pct.1: 0.353; Ptpn11 A6logFC: 0.2778; Ptpn11 avg_logFC: 0.2778; Ptpn11 pct.1: 0.37; Ptprc avg_logFC: 0.4165; Pvrl2 A6logFC: −0.2613; Qdpr avg_logFC: −0.5236; Qdpr pct.1: 0.606; Rab6a A6logFC: 0.3234; Rabac1 A6logFC: −0.266; Rabac1 avg_logFC: −0.266; Rabac1 pct.1: 0.346; Rad54l2 avg_logFC: 0.3887; Rad54l2 pct.1: 0.325; Ranbp2 avg_logFC: 0.5985; Rangap1 A6logFC: 0.2962; Rangap1 avg_logFC: 0.2962; Rangap1 pct.1: 0.387; Rap1b A6logFC: 0.3408; Rap1b avg_logFC: 0.3408; Rap1b pct.1: 0.406; Rarres2 avg_logFC: −0.5522; Rassf3 A6logFC: 0.2912; Rassf3 avg_logFC: 0.2912; Rassf3 pct.1: 0.422; Rbm25 A6logFC: 0.4215; Rbm39 A6logFC: 0.2657; Rbm39 avg_logFC: 0.2657; Rbm39 pct.1: 0.506; Rcan1 avg_logFC: 0.7073; Rdh7 avg_logFC: −0.4186; Reep3 A6logFC: 0.409; Reep3 avg_logFC: 0.409; Reep3 pct.1: 0.535; Rell1 avg_logFC: 0.5912; Retnlg avg_logFC: 0.3751; Retsat avg_logFC: 0.4911; Rgs2 avg_logFC: 0.3957; Rgs2 pct.1: 0.138; Riok3 A6logFC: 0.2916; Riok3 avg_logFC: 0.2916; Riok3 pct.1: 0.43; Rmnd5a A6logFC: 0.3189; Rmnd5a avg_logFC: 0.3189; Rmnd5a pct.1: 0.47; Rnase4 avg_logFC: −1.049; Rnaseh2c A6logFC: −0.3257; Rnd3 avg_logFC: 0.3655; Rnd3 pct.1: 0.284; Rnf144a avg_logFC: 0.313; Rnf144a pct.1: 0.177; Rnf169 A6logFC: 0.334; Rnf169 avg_logFC: 0.334; Rnf169 pct.1: 0.315; Rock1 A6logFC: 0.2608; Rock1 avg_logFC: 0.2608; Rock1 pct.1: 0.413; Rock2 avg_logFC: 0.5941; Romo1 A6logFC: −0.3359; Rora avg_logFC: 0.6444; Rpl13a avg_logFC: −0.3815; Rpl13a pct.1: 0.704; Rpl13 avg_logFC: −0.2988; Rpl13 pct.1: 0.294; Rpl14 A6logFC: −0.2776; Rpl14 avg_logFC: −0.2776; Rpl14 pct.1: 0.372; Rpl34 A6logFC: −0.2976; Rpl36al avg_logFC: −0.4755; Rpl36al pct.1: 0.284; Rplp1 avg_logFC: −0.5047; Rplp1 pct.1: 0.449; Rps15 avg_logFC: −0.4552; Rps15 pct.1: 0.301; Rps18 avg_logFC: −0.4885; Rps18 pct.1: 0.337; Rps24 A6logFC: −0.2625; Rps24 avg_logFC: −0.2625; Rps24 pct.1: 0.453; Rps27l avg_logFC: −0.8659; Rraga A6logFC: 0.2626; Rraga avg_logFC: 0.2626; Rraga pct.1: 0.337; Rsl1d1 A6logFC: 0.3461; S100a8 avg_logFC: 1.128; S100a9 avg_logFC: 1.343; Saa4 avg_logFC: −0.571; Sat1 avg_logFC: 0.6887; Sc5d avg_logFC: −0.5009; Sc5d pct.1: 0.58; Scaf11 A6logFC: 0.3598; Sco2 avg_logFC: −0.2605; Sco2 pct.1: 0.353; Scp2 avg_logFC: −0.5191; Sdad1 avg_logFC: 0.3124; Sdad1 pct.1: 0.289; Sdc3 pct.1: 0.103; Sdc4 avg_logFC: 0.6196; Sdr9c7 A6logFC: −0.26; Sec61b A6logFC: −0.2903; Sec1412 avg_logFC: −0.7897; Selenbp1 avg_logFC: −0.4937; Selenbp1 pct.1: 0.401; Selenbp2 avg_logFC: −1.009; Selo A6logFC: −0.2574; Selo avg_logFC: −0.2574; Selo pct.1: 0.217; Sema4g A6logFC: −0.2505; Sema4g avg_logFC: −0.2505; Sema4g pct.1: 0.27; Serbp1 A6logFC: 0.3227; Serbp1 avg_logFC: 0.3227; Serbp1 pct.1: 0.659; Serpina1a avg_logFC: −0.3785; Serpina1e avg_logFC: −0.2684; Serpina1e pct.1: 0.99; Serpina3m avg_logFC: 0.9674; Serpina3n avg_logFC: 0.8483; Serpina12 avg_logFC: −0.4534; Serpina12 pct.1: 0.232; Serpina1d avg_logFC: −0.289; Serpina1d pct.1: 0.926; Sf3b1 A6logFC: 0.2888; Sf3b1 avg_logFC: 0.2888; Sf3b1 pct.1: 0.508; Sgk1 A6logFC: 0.2843; Shmt1 avg_logFC: −0.3932; Shmt1 pct.1: 0.339; Sigmar1 A6logFC: −0.3055; Slc4a4 avg_logFC: 0.4203; Slc4a4 pct.1: 0.513; Slc10a2 avg_logFC: 0.299; Slc10a2 pct.1: 0.255; Slc16a2 A6logFC: −0.252; Slc16a2 avg_logFC: −0.252; Slc16a2 pct.1: 0.255; Slc16a6 avg_logFC: 0.9114; Slc16a10 A6logFC: −0.2548; Slc16a10 avg_logFC: −0.2548; Slc16a10 pct.1: 0.196; Slc20a1 avg_logFC: 0.3572; Slc20a1 pct.1: 0.284; Slc22a1 avg_logFC: −0.7979
